The record followed here is article PMC10242655, “Syringin inhibits endogenous volume regulated anion channel currents of HEK293 cells in hypotonic circumstances” (Pharmacology Research & Perspectives, 2023).

The assay addresses T1, VRAC (LRRC8A) (Homo sapiens, UniProt Q8IWT6).
T1 construct: endogenous VRAC channels of wild-type HEK293 cells; with at least one other LRRC8 subunit (LRRC8B-E; composition not determined)
T1 sequence (Q8IWT6 1-810): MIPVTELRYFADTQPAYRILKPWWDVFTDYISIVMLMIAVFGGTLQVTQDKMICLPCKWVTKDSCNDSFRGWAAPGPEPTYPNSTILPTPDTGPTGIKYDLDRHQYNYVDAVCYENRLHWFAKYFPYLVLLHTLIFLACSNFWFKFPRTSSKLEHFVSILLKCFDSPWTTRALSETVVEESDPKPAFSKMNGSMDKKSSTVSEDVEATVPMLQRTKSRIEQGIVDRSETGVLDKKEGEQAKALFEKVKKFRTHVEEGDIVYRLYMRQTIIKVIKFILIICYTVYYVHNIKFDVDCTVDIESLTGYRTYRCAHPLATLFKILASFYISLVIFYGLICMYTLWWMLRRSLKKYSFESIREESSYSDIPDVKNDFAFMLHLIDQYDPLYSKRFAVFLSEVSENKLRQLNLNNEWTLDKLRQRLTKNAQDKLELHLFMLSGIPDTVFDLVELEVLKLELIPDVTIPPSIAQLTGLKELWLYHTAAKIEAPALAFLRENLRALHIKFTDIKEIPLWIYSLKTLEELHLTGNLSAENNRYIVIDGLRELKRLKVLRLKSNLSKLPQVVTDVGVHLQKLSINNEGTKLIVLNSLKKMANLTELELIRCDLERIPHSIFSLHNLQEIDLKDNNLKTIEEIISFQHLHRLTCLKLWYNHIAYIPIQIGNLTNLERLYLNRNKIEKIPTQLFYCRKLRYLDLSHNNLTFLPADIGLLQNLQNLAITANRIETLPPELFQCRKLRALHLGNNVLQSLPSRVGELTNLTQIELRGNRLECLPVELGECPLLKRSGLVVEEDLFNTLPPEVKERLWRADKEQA
The assay can be described thus: whole-cell patch clamp of hypotonicity-induced VRAC currents in HEK293; I/I0 […] at […]. It is filed as cell-based. Background: The patch-clamp technique gives a direct electrical read-out from membranes.

For `COc1cc(/C=C/CO)cc(OC)c1O[C@@H]1O[C@H](CO)[C@@H](O)[C@H](O)[C@H]1O` [Syringin, 4‐[(1E)‐3‐hydroxyprop‐1‐en‐1‐yl]‐2,6‐dimethoxyphenyl β‐D‐glucopyranoside], the “whole-cell patch clamp of hypotonicity-induced VRAC currents in HEK293; I/I0 0.6” value is on record as “I/I0 0.61 ± 0.02 at 100 μM”.
